Test results from article PMC5484149 (Journal of Medicinal Chemistry, 2017).

Legend:
[1] = rats; cited from earlier work
[2] = Rat IV PK; format: in vivo; conditions: male, Sprague-Dawley, plasma, 1 mg/kg
[3] = Stability in rat plasma; format: in vitro ADME
[4] = system: TA100; test: Bacterial reverse mutation assay; format: cell-based, Salmonella typhimurium; conditions: with and without S9 metabolic activation; 0.05 to 5.0 mg/plate
[5] = system: TA1537; test: Bacterial reverse mutation assay; format: cell-based, Salmonella typhimurium; conditions: with and without S9 metabolic activation; 0.05 to 5.0 mg/plate
[6] = Stability in human cryopreserved hepatocytes
[7] = system: WP2 uvrA; test: Bacterial reverse mutation assay; format: cell-based, Escherichia coli; conditions: with and without S9 metabolic activation; 0.05 to 5.0 mg/plate
[8] = Cynomolgus monkey oral PK; format: in vivo; conditions: male, plasma, 5 mg/kg
[9] = system: TA98; test: Bacterial reverse mutation assay; format: cell-based, Salmonella typhimurium; conditions: with and without S9 metabolic activation; 0.05 to 5.0 mg/plate
[10] = system: TA135; test: Bacterial reverse mutation assay; format: cell-based, Salmonella typhimurium; conditions: with and without S9 metabolic activation; 0.05 to 5.0 mg/plate
[11] = system: aldehyde oxidase (AO); test: Metabolism in hepatic S9 fractions; format: in vitro ADME; conditions: rat, cynomolgus monkey and human hepatic S9 fractions

## Cc1csc(NC(=O)c2cc(F)cc(Oc3cncnc3)c2)n1 [compound 9]
[1]
  Clp: 2.58 L/h/kg

## Cc1cccc(NC(=O)c2cc(Oc3cncnc3)cc(C)n2)n1 [compound 21, 6-Methyl-N-(6-methylpyridin-2-yl)-4-(pyrimidin-5-yloxy)picolinamide]
[2]
  clearance at 24 h: 2.05 L/h/kg

## Cc1cccc(NC(=O)c2cc(Oc3cncc(F)c3)cc(C)n2)n1 [compound 22, 4-((5-Fluoropyridin-3-yl)oxy)-6-methyl-N-(6-methylpyridin-2-yl)picolinamide]
[2]
  clearance at 24 h: 1.95 L/h/kg

## CCc1cccc(NC(=O)c2cc(Oc3cncnc3)cc(C)n2)n1 [compound 23, N-(6-Ethylpyridin-2-yl)-6-methyl-4-(pyrimidin-5-yloxy)picolinamide]
[2]
  clearance at 24 h: 2.62 L/h/kg

## Cc1cc(Oc2cncc(F)c2)cc(C(=O)Nc2cccc(F)n2)n1 [compound 26, N-(6-Fluoropyridin-2-yl)-4-((5-fluoropyridin-3-yl)oxy)-6-methylpicolinamide]
[3]
  stability in rat plasma: instability
[2]
  clearance at 24 h: 5.76 L/h/kg

## Cc1cc(Oc2cncnc2)cc(C(=O)Nc2ccc(F)cn2)n1 [compound 27, N-(5-Fluoropyridin-2-yl)-6-methyl-4-(pyrimidin-5-yloxy)picolinamide]
[4]
  bacterial reverse mutation assay TA100: negative
[5]
  bacterial reverse mutation assay TA1537: negative
[6]; both, cryopreserved hepatocytes (pooled, 19 donors)
  half-life at 5 µM: > 5 h
[6]; predicted from hepatocytes
  predicted hepatic clearance (CLHEP): 0.215 L/h/kg
[7]
  bacterial reverse mutation assay WP2 uvrA: negative
[8]
  Tmax: 3 h
[9]
  bacterial reverse mutation assay TA98: negative
[2]
  clearance at 24 h: 1.16 L/h/kg
[10]
  bacterial reverse mutation assay TA135: negative
[11]
  contribution of AO to metabolism: AO contributed significantly to the metabolism

## Cc1cc(Oc2cncc(F)c2)cc(C(=O)Nc2ccc(F)cn2)n1 [compound 28, N-(5-Fluoropyridin-2-yl)-4-((5-fluoropyridin-3-yl)oxy)-6-methylpicolinamide]
[8]
  Tmax: 2 h
[2]
  clearance at 24 h: 0.552 L/h/kg

## Cc1cc(Oc2cnc(C)nc2)cc(C(=O)Nc2ccc(F)cn2)n1 [compound 33, N-(5-Fluoropyridin-2-yl)-6-methyl-4-((2-methylpyrimidin-5-yl)oxy)picolinamide]
[2]
  clearance at 24 h: 0.372 L/h/kg
